Results published in patent publication US11542316B2, “S-Arrestin peptides and therapeutic uses thereof” (APITOPE INTERNATIONAL NV, priority 2017, dated 2023).
Ends that are not written are not given here.

Columns and labels:
[1] = molecular target: T1, MHC II molecules present on dendritic cells (DC) (Homo sapiens, UniProt P01903+P01911); assay: In vivo presentation experiment, DR2tg mice; conditions: 100 μg peptide s.c., CD11c+ cells harvested after 2 hours, co-culture 48 hours
T1 construct: from tissue; host or cells: CD11c+ dendritic cells from spleens of DR2tg mice (DRA*0101 and DRB1*1501 cDNAs under a mouse MHCII promoter, no mouse MHC class II)
Description: FIG. 14: In vivo presentation protocol. Mice are immunized with peptide/CFA and a T cell line is established. For this, ten days after immunization the LN and spleens are harvested and cultured with different concentrations of peptide; 2×10^6 cells/ml APC+1×10^6 cells/ml CD4^+ cells per well. At day 7 the cells are re-stimulated with fresh APC and the same concentrations of peptide. After 14 to 21 days, CD4^+ cells are isolated from these cultures by magnetic bead isolation. These CD4^+ cells are co-cultured with CD11c^+ (dendritic) cells isolated by magnetic bead isolation from spleens of mice s.c. injected with peptide 2 hours before. Control mice receive a s.c. injection of PBS. After 48 hours, supernatant is collected and cytokine response (IFN-γ) is measured. […]
FIG. 17: In vivo presentation of HIP-9FL nested peptides in DR2 mice. […] After 48 hours, supernatant was collected and IFN-γ production was measured by ELISA. […]
DR3tg or DR2tg mice were injected with 100 μg of peptide in 100 μl PBS subcutaneously (s.c.) in the flank. […] After 48 hours, supernatant of these co-cultures was collected and CD4^+ T cell activation was analysed by IFN-γ ELISA (R&D Systems, Abingdon, UK). In a parallel experiment, CD4^+ T cell responses towards peptide added in vitro were assessed to make sure the T cells recognize the peptides presented by the CD11c^+ cells.

Solubility of peptides = assay type: physicochemical
Protocol: The solubility of potential apitopes from S—Ag are determined by visual observations and turbidity measurement by UV spectrophotometry at 280 nm. The solubility of the peptides can be modified by adding amino acids ‘GKK’ or ‘KKK’ (or similar) on both the C- and N-terminus of the sequence. Modifications that may be suitable are described in WO2014/072958 (which is hereby incorporated by reference).
For some of these peptides, the parental peptides were insoluble, and solubility is a critical parameter for them to work as a tolerogenic peptide. Several end-terminal modifications can be used and as example used here they were improved by addition of 3 lysines before and after the original peptide sequence (labelled as ‘-KKK’ versions).

LN and spleen cells = assay: Immunogenicity of HIP-115 in DR3 mice (IFN-γ ELISA on LN and spleen cultures); assay type: in vivo; conditions: mice immunized with 50 μg HIP-115/CFA; LN and spleens cultured with 10 and 25 μg/ml HIP-115, 72 h
Protocol: FIG. 1: Immunogenicity of HIP-115 in DR3 mice. Mice were immunized with 50 μg HIP-115/CFA or PBS/CFA in the tail base. After 10 days, LN and spleens were harvested and cultured with 10 μg/ml and 25 μg/ml of HIP-115. Supernatants were collected after 72 h. Cell activation was measured by IFN-γ ELISA. (A) Immunogenicity in LN. (B) Immunogenicity in spleens. CFA, Complete Freund's Adjuvant; LN, lymph nodes.
Animal experiments were done to verify the predictions. Mice that were immunized with SAg (or fragments of it) were tested for their capacity to elicit an immune response when probed with the whole protein or parts of it. […] This response can be observed in secondary lymphoid organs, namely spleen (FIG. 1A) and lymph nodes (LN; FIG. 1B).

[2] = test system: SAg-specific hybridoma cells / T cell line with VAVY APC; assay: Antigen Processing Independent Presentation System (APIPS) assay, fresh or fixed VAVY APC; assay type: cell-based, DR3 mice; conditions: DR3 hybridoma clone (IL-2, 48 h) or T cell line (IFN-γ, 24 h)
Protocol: (§1) FIG. 2: identification of apitopes within HIP-115. (A) DR3 mice were immunized with SAg and hybridomas were generated. 5×10^4 SAg-specific hybridoma cells were cultured with 5×10^4 fresh or fixed commercial APC (VAVY) cells. T cell proliferation was measured by IL-2 ELISA on supernatants collected after 48 h. The graph represents the mean of duplicate measurements±SEM. (B) DR3 mice were immunized with HIP-115 and a T cell line was established. Ten days after immunization the LN and spleens were harvested and cultured with different concentrations of peptide (0.1-1-2.5 and 5 μg/ml); 2×10^6 cells/ml APC+1×10^6 cells/ml CD4 T cells per well. At day 7 the cells were re-stimulated with the same concentrations of peptide. On day 14 an APIPS test was done using commercial APC (VAVY). After 24 h, antigen-induced T cell activation was measured by IFN-γ ELISA and shown as IFN-γ concentration (pg/ml). The graph represents the mean of duplicate measurements±SEM. LN, lymph nodes; APC, Antigen presenting cell; APIPS, Antigen Processing Independent Presentation System.
as §1, with “3:” for “2:”, “HIP-241125.” for “HIP-115.”, “HIP-241125+HIP-24DG” for “HIP-115”
(§2) FIG. 5: Identification of apitopes within HIP-17GN. DR3 mice were immunized with HIP-17GN and a T cell line was established. Ten days after immunization the LN and spleens were harvested and cultured with different concentrations of peptide (0.1-1-2.5 and 5 μg/ml); 2×10^6 cells/ml APC+1×10^6 cells/ml CD4 T cells per well. At day 7 the cells were re-stimulated with the same concentrations of peptide. On day 14 an APIPS test was done using commercial APC (VAVY). After 24 h, antigen-induced T cell activation was measured by IFN-γ ELISA and shown as OD values. The graph represents the mean of triplicate measurements±SEM. LN, lymph nodes; APC, Antigen presenting cell; APIPS, Antigen Processing Independent Presentation System.
as §2, with “6:” for “5:”, “HIP-12AK.” for “HIP-17GN.”, “HIP-12AK” for “HIP-17GN”, “IFN-γ concentration (pg/ml).” for “OD values.”, “duplicate” for “triplicate”
Antigen-specific clones or TCL were tested for their reactivity to the peptides, presented by fixed or not fixed (fresh) cells (VAVY or MGAR) (=APCs). 5×10^4 cells from the individual clones were cultured with 10 μg/ml peptide and 5×10^4 fixed or fresh APCs. […]

T1 sequence (P01903 26-254): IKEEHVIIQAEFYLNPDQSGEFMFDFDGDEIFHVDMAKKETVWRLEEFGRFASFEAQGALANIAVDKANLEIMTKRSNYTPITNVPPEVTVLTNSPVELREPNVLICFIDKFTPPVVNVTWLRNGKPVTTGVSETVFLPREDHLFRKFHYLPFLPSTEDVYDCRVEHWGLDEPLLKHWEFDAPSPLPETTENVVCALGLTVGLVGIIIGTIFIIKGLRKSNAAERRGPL
T1 sequence (P01911 30-266): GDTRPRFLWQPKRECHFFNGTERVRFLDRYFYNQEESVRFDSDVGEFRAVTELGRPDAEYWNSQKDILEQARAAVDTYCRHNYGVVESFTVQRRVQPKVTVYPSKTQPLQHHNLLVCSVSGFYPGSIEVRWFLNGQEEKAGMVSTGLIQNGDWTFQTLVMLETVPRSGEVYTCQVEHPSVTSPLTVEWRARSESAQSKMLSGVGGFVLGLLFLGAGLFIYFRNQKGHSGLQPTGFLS

| Substance | picked up and presented by MHC II on dendritic cells to peptide-specific T cells (IFN-γ production) [1] | solubility (Solubility of peptides) | immune response against HIP-115 (IFN-γ ELISA) (LN and spleen cells) | behaves as apitope (response to peptide presented by fresh or fixed APC) [2] |
| --- | --- | --- | --- | --- |
| AFVEQVANVVL-NH2 [HIP-9K1, AFVEQVANVVL] | not able to cause this activation | insoluble |  |  |
| MAASGKTSKSEPNHVIFKKISRDKSVTIYLGNRDYIDHVSQV-NH2 [HIP-115] |  |  | develop an immune response against it | behave as apitopes |
